The values that follow come from patent US11760722B2 (priority 2022, dated 2023).

For the test, the system named is SARS-CoV-2 Delta USA/MD-HP05647/2021 (Lineage B.1.617.2). Nature of the test: microbe, parasite or virus in culture. Format: cell-based. The conditions noted are these: Severe acute respiratory syndrome coronavirus 2, Vero C1008, 4 h; read-out: Vero E6 Delta CPE/EC50.
In the case of `CC(C)(C)[C@H](NC(=O)C(F)(F)C(F)(F)C(F)(F)F)C(=O)N1C[C@H]2[C@@H]([C@H]1C(=O)N[C@H](C#N)C[C@@H]1CCNC1=O)C2(C)C` [Compound 133], the EC50 was determined as 437 nM.
The value for `CC(C)(C)[C@H](NC(=O)C1(C(F)(F)F)CC1)C(=O)N1C[C@H]2[C@@H]([C@H]1C(=O)N[C@H](C#N)C[C@@H]1CCNC1=O)C2(C)C` [Compound 151] was 1630 nM; that for `Cc1cc(S(=O)(=O)N[C@H](C(=O)N2C[C@H]3[C@@H]([C@H]2C(=O)N[C@H](C#N)C[C@@H]2CCNC2=O)C3(C)C)C(C)(C)C)sc1Cl` [Compound 168] was 21.8 nM.
The value for `CCCc1ccc(S(=O)(=O)N[C@H](C(=O)N2C[C@H]3[C@@H]([C@H]2C(=O)N[C@H](C#N)C[C@@H]2CCNC2=O)C3(C)C)C(C)(C)C)s1` [Compound 171] was 80.8 nM.
